Results as given in publication PMC6093650, “Antidepressive and anxiolytic effects of ostruthin, a TREK-1 channel activator” (PLoS ONE, 2018).

Assays:
HERG-1 = biological target: T1, HERG-1 (Homo sapiens, UniProt Q12809); assay: whole-cell patch-clamp of HERG-1 tail currents in 293T cells; type: cell-based; settings: outward tail current, n = 5
T1 construct: expressed in transfected cells
Source text: (§1) For recordings of K^+ channel currents, we prepared stable cell lines for TREK-1, TWIK-related acid-sensitive K^+ channel (TASK-1), strongly inwardly rectifying K^+ channel (Kir2.1), and human ether-a-go-go-related gene (HERG-1) channels and transiently expressed other channels in 293T cells using a calcium-phosphate transfection method. For the establishment of the stable lines, we used lentiviral vectors, and the preparation methods for the lentiviral vectors were described in our previous report. TR-1 cells, which stably expressed TREK-1 channel and were grown on a small cover glass (3 × 18 mm), were placed in a recording chamber with an internal volume of 200 μl. Whole-cell currents were recorded in Tyrode solution using an Axopatch 200B amplifier (Axon Instruments, Foster City, CA) at 25°C. Tyrode solution contained (in mM): NaCl 140, KCl 5.4, NaH2PO4 0.33, CaCl2 2, MgCl2 1, HEPES 5, and glucose 5.5 (pH 7.4 adjusted with NaOH). […] Perfusion (100 μl/min) was continued to maintain the water level throughout recordings. pH and osmotic pressure of solutions were measured with a pH meter (Horiba, Kyoto, Japan) and a freezing point osmometer (Knauer, Berlin, Germany), respectively. […]

HERG-3 = biological target: T2, HERG-3 (Homo sapiens, UniProt Q9NS40); assay: whole-cell patch-clamp of HERG-3 currents in 293T cells; type: cell-based; settings: 100 μM (data not shown)
T2 construct: expressed in transfected cells; host or cells: 293T (transient, calcium-phosphate transfection)
T2 sequence (Q9NS40 1-1196): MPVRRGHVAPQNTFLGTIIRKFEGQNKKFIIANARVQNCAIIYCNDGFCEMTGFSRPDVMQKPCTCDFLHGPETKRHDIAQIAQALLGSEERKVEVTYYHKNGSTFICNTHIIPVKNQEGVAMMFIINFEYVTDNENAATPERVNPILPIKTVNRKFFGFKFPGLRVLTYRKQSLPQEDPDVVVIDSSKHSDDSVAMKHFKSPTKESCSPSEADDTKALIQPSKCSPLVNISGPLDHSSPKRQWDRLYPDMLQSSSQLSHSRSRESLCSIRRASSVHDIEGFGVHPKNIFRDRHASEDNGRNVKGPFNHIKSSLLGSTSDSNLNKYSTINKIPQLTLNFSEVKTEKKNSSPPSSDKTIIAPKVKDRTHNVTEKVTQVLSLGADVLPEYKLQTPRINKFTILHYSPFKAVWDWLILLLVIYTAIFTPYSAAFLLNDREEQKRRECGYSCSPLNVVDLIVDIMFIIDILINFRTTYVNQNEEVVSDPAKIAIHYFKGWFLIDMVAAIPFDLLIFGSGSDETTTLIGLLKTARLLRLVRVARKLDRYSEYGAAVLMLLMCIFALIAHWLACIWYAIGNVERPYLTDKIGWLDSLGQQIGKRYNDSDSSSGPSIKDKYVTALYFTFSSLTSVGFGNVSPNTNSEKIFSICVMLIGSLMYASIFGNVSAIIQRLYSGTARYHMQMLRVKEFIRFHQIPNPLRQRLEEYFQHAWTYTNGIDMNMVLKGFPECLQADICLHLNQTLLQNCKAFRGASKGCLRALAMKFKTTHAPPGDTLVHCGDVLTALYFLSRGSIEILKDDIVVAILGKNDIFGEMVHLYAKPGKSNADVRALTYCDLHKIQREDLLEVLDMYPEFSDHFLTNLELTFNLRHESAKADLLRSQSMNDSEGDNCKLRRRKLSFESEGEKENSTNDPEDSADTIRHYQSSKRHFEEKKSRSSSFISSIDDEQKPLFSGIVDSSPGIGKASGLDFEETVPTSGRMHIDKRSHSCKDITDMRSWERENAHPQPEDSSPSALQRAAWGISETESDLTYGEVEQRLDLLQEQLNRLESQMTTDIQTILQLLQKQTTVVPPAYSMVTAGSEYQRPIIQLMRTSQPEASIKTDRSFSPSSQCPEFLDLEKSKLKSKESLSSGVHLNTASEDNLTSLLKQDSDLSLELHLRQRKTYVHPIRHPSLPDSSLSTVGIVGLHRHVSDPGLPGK
Source text: as §1

T1 sequence (Q12809 whole entry): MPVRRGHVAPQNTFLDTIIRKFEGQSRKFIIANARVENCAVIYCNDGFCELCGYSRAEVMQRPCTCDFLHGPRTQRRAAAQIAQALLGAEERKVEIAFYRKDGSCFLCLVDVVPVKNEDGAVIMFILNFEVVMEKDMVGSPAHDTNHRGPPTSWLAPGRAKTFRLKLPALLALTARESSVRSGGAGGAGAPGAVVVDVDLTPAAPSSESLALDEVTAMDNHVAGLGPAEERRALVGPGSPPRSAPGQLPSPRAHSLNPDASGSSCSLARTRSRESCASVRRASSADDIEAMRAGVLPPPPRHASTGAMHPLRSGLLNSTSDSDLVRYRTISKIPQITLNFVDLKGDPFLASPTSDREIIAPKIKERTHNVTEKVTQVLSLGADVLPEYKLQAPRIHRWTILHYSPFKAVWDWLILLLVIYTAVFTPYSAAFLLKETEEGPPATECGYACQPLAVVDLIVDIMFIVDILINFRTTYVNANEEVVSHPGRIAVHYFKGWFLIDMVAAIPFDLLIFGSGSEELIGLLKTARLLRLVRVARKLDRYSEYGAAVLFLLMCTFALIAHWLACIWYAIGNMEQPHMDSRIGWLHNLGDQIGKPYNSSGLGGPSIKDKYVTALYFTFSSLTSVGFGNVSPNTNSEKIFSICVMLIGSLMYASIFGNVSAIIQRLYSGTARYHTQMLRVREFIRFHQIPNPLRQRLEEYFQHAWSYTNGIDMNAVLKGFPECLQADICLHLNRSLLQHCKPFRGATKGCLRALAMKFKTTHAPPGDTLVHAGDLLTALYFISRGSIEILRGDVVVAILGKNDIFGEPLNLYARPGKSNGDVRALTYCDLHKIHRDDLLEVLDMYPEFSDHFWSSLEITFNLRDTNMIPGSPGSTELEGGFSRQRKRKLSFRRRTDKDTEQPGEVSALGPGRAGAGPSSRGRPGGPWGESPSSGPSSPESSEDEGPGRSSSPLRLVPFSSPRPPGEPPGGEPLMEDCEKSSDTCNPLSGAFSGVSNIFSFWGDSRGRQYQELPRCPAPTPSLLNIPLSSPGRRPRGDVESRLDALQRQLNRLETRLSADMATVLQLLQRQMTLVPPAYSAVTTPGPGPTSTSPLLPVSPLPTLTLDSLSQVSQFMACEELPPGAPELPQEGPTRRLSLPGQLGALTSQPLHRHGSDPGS

`CC(C)=CCC/C(C)=C/Cc1cc2ccc(=O)oc2cc1O` [ostruthin] was tested, and the IC50 (HERG-1) was 216 µM and the “effect on HERG-3 channels” value (HERG-3) was “no effect”.
